Data reported in patent US10766928B2, “Targeted conformationally-constrained kinked endosomal disrupting peptides” (priority 2012, dated 2020).
In brackets after ≈: the same amount, converted by molar mass. Like-named read-outs stand apart in the source and are kept apart here. Non-standard residues stand in square brackets, D forms with d. Residues, ends and D or L forms follow the SMILES beside them. *: point of attachment. Pentanoyl(5-NH-cholesteryl) = CC(C)CCC[C@@H](C)[C@H]1CC[C@H]2[C@@H]3CC=C4C[C@@H](NCCCCC(=O)*)CC[C@]4(C)[C@H]3CC[C@]12C; Cholesteryloxycarbonyl = CC(C)CCC[C@@H](C)[C@H]1CC[C@H]2[C@@H]3CC=C4C[C@@H](OC(=O)*)CC[C@]4(C)[C@H]3CC[C@]12C; PEG3 = NCCOCCOCCOCCC(=O)O; Aib = CC(C)(N)C(=O)O; Ahx = NCCCCCC(=O)O; βAla = NCCC(=O)O

Tests used:
[1] = system: endosomes of Jurkat lymphocytes; test: Endosome disruption in Jurkat lymphocytes: release of carboxyfluorescein from disulfide probe Compound 2, flow cytometry; conditions: for Efficacy (% of max. 1): % change in cellular fluorescence relative to maximal response of Compound 1 (100%); for Efficacy (% of max. 1) / Efficacy (% of 1): Jurkat; for Efficacy (% of 1): % of the effect of compound 1, calculated span of dose-response curve, ± standard deviation
Protocol: The effects of the compounds of the invention on human Juikat leukemia cells were evaluated using flow cytometry-based assays of potency, efficacy, and toxicity. […] Analysis of flow cytometry data by non-linear regression was used to determine IC50 values for potency with the efficacy expressed as a percentage. […] Dose-dependent effects on cellular viability after 48 h at 37° C. in culture were also measured by flow cytometry.
The # represents the compound number in accordance with Tables A, B, and C. Concentrations of compound stock solutions were determined by absorbance measurements at 280 nm. Efficacy was determined as % change in cellular fluorescence relative to the maximal response of Compound 1, defined as 100%. Potencies and efficacies in Jurkat lymphocytes were measured by flow cytometry after treatment of cells with the compounds listed and the fluorescent probe Compound 2 (2.5 μM) for 14 hours. Toxicity to this cell line was determined by flow cytometry analysis of light scattering and counterstaining with PI after treatment for 48 h at 37° C. in culture. […] N.D., not determined.
Cells were treated with fluorescent molecular probe Compound 2 (2.5 μM) and endosome disruptors for 14 hours at 37° C. Enhanced cellular fluorescence resulting from release of the pH-sensitive fluorophore Compound 3 into the cytoplasm was quantified by flow cytometry.
Natural amino acids are represented by single letter codes. Codes for non-standard elements are as follows: Ch1: (3β-Cholest-5-en-3-yl-ammonio)pentanoyl; Ch2: (Cholester-3-yl)oxy-βAla-βAla; X: ε-Ahx; U: Aib; PB: Pacific Blue fluorophore. O: 3-(2-(2-(2-aminoethoxy)ethoxy)ethoxy)propanyl.

[2] = Thermodynamic solubility in PBS (pH 7.4); assay type: physicochemical; conditions: phosphate buffered saline, pH 7.4, Table 3; PBS pH 7.4, 24 h at 22° C.; read-out: Solubility
Excerpt: Values in parentheses represent 95% confidence intervals. N.D., not determined.
Measurements represent duplicate or more replicates, with active peptides subjected to multiple replicates. ND: not determined. The peptide was non-toxic and soluble in cell culture medium at this concentration.

[3] = read-out: Potency, Table 2, EC50 ± standard deviation, Jurkat lymphocytes, disulfide-linked fluorescent probe (2.5 μM), 14 h

| EC50 [1, 3] [µM] | solubility thermodynamic at 24 h [2] [µM] | Molecule | EC50 ([1]; 14 h) [µM] | Efficacy (% of max. 1) ([1]; Table 1, 14 hours) | Efficacy (% of 1) ([1]; Table 2, 14 h) [%] | further results |
| --- | --- | --- | --- | --- | --- | --- |
|  |  | CC(C)CCC[C@@H](C)[C@H]1CC[C@H]2[C@@H]3CC=C4C[C@@H](NCCCCC(=O)NCCC(=O)N[C@@H](CCC(=O)O)C(=O)N[C@@H](CCC(=O)O)C(=O)NCCCCCC(=O)N[C@@H](CO)C(=O)N[C@@H](CO)C(=O)N[C@@H](C)C(=O)N[C@@H](Cc5c[nH]c6ccccc56)C(=O)N[C@@H](Cc5c[nH]c6ccccc56)C(=O)N[C@@H](CO)C(=O)N[C@@H](Cc5ccc(O)cc5)C(=O)N[C@@H](Cc5c[nH]c6ccccc56)C(=O)N5CCC[C@H]5C(=O)N5CCC[C@H]5C(=O)N[C@H](C(=O)N[C@@H](C)C(N)=O)C(C)C)CC[C@]4(C)[C@H]3CC[C@]12C [Compound 6, R = BEEXSSAWWSYWPPVA-CONH2] ({Pentanoyl(5-NH-cholesteryl)-βAla}-EE[Ahx]SSAWWSYWPPVA-NH2) | 3.5 |  |  |  |
|  |  | CC(C)CCC[C@@H](C)[C@H]1CC[C@H]2[C@@H]3CC=C4C[C@@H](NCCCCC(=O)NCCC(=O)N[C@@H](CCC(=O)O)C(=O)N[C@@H](CCC(=O)O)C(=O)NCCCCCC(=O)NC(C)(C)C(=O)NC(C)(C)C(=O)NC(C)(C)C(=O)N[C@@H](Cc5c[nH]c6ccccc56)C(=O)N[C@@H](Cc5c[nH]c6ccccc56)C(=O)N[C@@H](C)C(=O)N[C@@H](C)C(=O)N[C@@H](Cc5c[nH]c6ccccc56)C(=O)N5CCC[C@H]5C(=O)N5CCC[C@H]5C(=O)N[C@H](C(=O)N[C@@H](C)C(N)=O)C(C)C)CC[C@]4(C)[C@H]3CC[C@]12C [Compound 14, R = BEEXUUUWWAAWPPVA-CONH2] ({Pentanoyl(5-NH-cholesteryl)-βAla}-EE[Ahx][Aib][Aib][Aib]WWAAWPPVA-NH2) | 1.2 |  |  |  |
|  |  | CC(C)CCC[C@@H](C)[C@H]1CC[C@H]2[C@@H]3CC=C4C[C@@H](NCCCCC(=O)NCCC(=O)N[C@@H](CCC(=O)O)C(=O)N[C@@H](CCC(=O)O)C(=O)NCCCCCC(=O)NC(C)(C)C(=O)NC(C)(C)C(=O)NC(C)(C)C(=O)N[C@@H](Cc5c[nH]c6ccccc56)C(=O)N[C@@H](Cc5c[nH]c6ccccc56)C(=O)N[C@@H](C)C(=O)N[C@@H](Cc5ccc(O)cc5)C(=O)N[C@@H](Cc5c[nH]c6ccccc56)C(=O)N[C@@H](C)C(=O)N5CCC[C@H]5C(=O)N[C@H](C(=O)N[C@@H](C)C(N)=O)C(C)C)CC[C@]4(C)[C@H]3CC[C@]12C [Compound 16, R = BEEXUUUWWAYWAPVA-CONH2] ({Pentanoyl(5-NH-cholesteryl)-βAla}-EE[Ahx][Aib][Aib][Aib]WWAYWAPVA-NH2) | 1.6 |  |  |  |
|  |  | CC(C)CCC[C@@H](C)[C@H]1CC[C@H]2[C@@H]3CC=C4C[C@@H](NCCCCC(=O)NCCC(=O)N[C@@H](CCC(=O)O)C(=O)N[C@@H](CCC(=O)O)C(=O)NCCCCCC(=O)NC(C)(C)C(=O)NC(C)(C)C(=O)NC(C)(C)C(=O)N[C@@H](Cc5c[nH]c6ccccc56)C(=O)N[C@@H](Cc5c[nH]c6ccccc56)C(=O)N[C@@H](C)C(=O)N[C@@H](Cc5ccc(O)cc5)C(=O)N[C@@H](Cc5c[nH]c6ccccc56)C(=O)N5CCC[C@H]5C(=O)N[C@@H](C)C(=O)N[C@H](C(=O)N[C@@H](C)C(N)=O)C(C)C)CC[C@]4(C)[C@H]3CC[C@]12C [Compound 17, R = BEEXUUUWWAYWPAVA-CONH2] ({Pentanoyl(5-NH-cholesteryl)-βAla}-EE[Ahx][Aib][Aib][Aib]WWAYWPAVA-NH2) | 2.1 |  |  |  |
|  |  | CC(C)CCC[C@@H](C)[C@H]1CC[C@H]2[C@@H]3CC=C4C[C@@H](NCCCCC(=O)NCCC(=O)N[C@@H](CCC(=O)O)C(=O)N[C@@H](CCC(=O)O)C(=O)NCCCCCC(=O)NCCCCCC(=O)NC(C)(C)C(=O)NC(C)(C)C(=O)NC(C)(C)C(=O)NC(C)(C)C(=O)N[C@@H](Cc5ccccc5)C(=O)N[C@@H](Cc5ccccc5)C(=O)N[C@@H](C)C(=O)N[C@@H](Cc5ccccc5)C(=O)N[C@@H](Cc5ccccc5)C(=O)N5CCC[C@H]5C(=O)N5CCC[C@H]5C(=O)N[C@H](C(=O)N[C@@H](C)C(N)=O)C(C)C)CC[C@]4(C)[C@H]3CC[C@]12C [Compound 22, R = BEEXXUUUUFFAFFPPVA-CONH2] ({Pentanoyl(5-NH-cholesteryl)-βAla}-EE[Ahx][Ahx][Aib][Aib][Aib][Aib]FFAFFPPVA-NH2) | > 10 |  |  |  |
|  | 86 ± 5 (≈ 123 µg/mL) | CC(C)[C@H](NC(=O)[C@@H](NC(=O)[C@@H]1CCCN1C(=O)[C@@H]1CCCN1C(=O)[C@H](Cc1c[nH]c2ccccc12)NC(=O)[C@H](Cc1ccc(O)cc1)NC(=O)[C@H](C)NC(=O)[C@H](Cc1c[nH]c2ccccc12)NC(=O)[C@H](C)NC(=O)C(C)(C)NC(=O)C(C)(C)NC(=O)C(C)(C)NC(=O)C(C)(C)N)C(C)C)C(N)=O [Compound 45] (H-[Aib][Aib][Aib][Aib]AWAYWPPVV-NH2) |  | <<50% | <10 |  |
|  | 86 ± 5 (≈ 123 µg/mL) | CC(C)[C@H](NC(=O)[C@@H](NC(=O)[C@@H]1CCCN1C(=O)[C@@H]1CCCN1C(=O)[C@H](Cc1c[nH]c2ccccc12)NC(=O)[C@H](Cc1ccc(O)cc1)NC(=O)[C@H](C)NC(=O)[C@H](C)NC(=O)[C@H](Cc1c[nH]c2ccccc12)NC(=O)C(C)(C)NC(=O)C(C)(C)NC(=O)C(C)(C)NC(=O)C(C)(C)N)C(C)C)C(N)=O [Compound 46] (H-[Aib][Aib][Aib][Aib]WAAYWPPVV-NH2) |  | <<50% | <10 |  |
| > 15 | 63 ± 3 (≈ 91.4 µg/mL) | CC(C)[C@H](NC(=O)[C@@H](NC(=O)[C@@H]1CCCN1C(=O)[C@@H]1CCCN1C(=O)[C@H](Cc1c[nH]c2ccccc12)NC(=O)[C@H](C)NC(=O)[C@H](C)NC(=O)[C@H](Cc1c[nH]c2ccccc12)NC(=O)[C@H](Cc1c[nH]c2ccccc12)NC(=O)C(C)(C)NC(=O)C(C)(C)NC(=O)C(C)(C)NC(=O)C(C)(C)N)C(C)C)C(N)=O [Compound 47] (H-[Aib][Aib][Aib][Aib]WWAAWPPVV-NH2) |  | <<50% |  |  |
|  | 86 ± 5 (≈ 123 µg/mL) | CC(C)[C@H](NC(=O)[C@@H](NC(=O)[C@@H]1CCCN1C(=O)[C@@H]1CCCN1C(=O)[C@H](C)NC(=O)[C@H](Cc1ccc(O)cc1)NC(=O)[C@H](C)NC(=O)[C@H](Cc1c[nH]c2ccccc12)NC(=O)[C@H](Cc1c[nH]c2ccccc12)NC(=O)C(C)(C)NC(=O)C(C)(C)NC(=O)C(C)(C)NC(=O)C(C)(C)N)C(C)C)C(N)=O [Compound 48] (H-[Aib][Aib][Aib][Aib]WWAYAPPVV-NH2) |  | <<50% | <10 |  |
| 4 ± 1 |  | CC(C)[C@H](NC(=O)[C@@H](NC(=O)[C@@H]1CCCN1C(=O)[C@@H]1CCCN1C(=O)[C@H](Cc1ccc(O)cc1)NC(=O)[C@H](Cc1ccc(O)cc1)NC(=O)[C@H](C)NC(=O)[C@H](Cc1ccc(O)cc1)NC(=O)[C@H](Cc1ccc(O)cc1)NC(=O)[C@H](C)NC(=O)[C@H](Cc1ccc(O)cc1)NC(=O)[C@H](Cc1ccc(O)cc1)NC(=O)C(C)(C)NC(=O)C(C)(C)NC(=O)C(C)(C)NC(=O)C(C)(C)N)C(C)C)C(N)=O [Compound 85] (H-[Aib][Aib][Aib][Aib]YYAYYAYYPPVV-NH2) |  |  | >125 |  |
| 0.08 ± 0.01 |  | Ch1-EEOOUUUUYYYYPPVV-NH2 [Compound 86] |  |  | 125 ± 10 |  |

| Molecule | EC50 [1, 3] [µM] | solubility thermodynamic at 24 h [2] [µM] | EC50 ([1]; 14 h) [µM] | Efficacy (% of max. 1) ([1]; Table 1, 14 hours) | Efficacy (% of 1) ([1]; Table 2, 14 h) [%] | further results |
| --- | --- | --- | --- | --- | --- | --- |
| CC(C)[C@H](NC(=O)[C@@H]1CCCN1C(=O)[C@@H]1CCCN1C(=O)[C@H](Cc1c[nH]c2ccccc12)NC(=O)[C@H](Cc1ccc(O)cc1)NC(=O)[C@H](C)NC(=O)[C@H](Cc1c[nH]c2ccccc12)NC(=O)[C@H](Cc1c[nH]c2ccccc12)NC(=O)C(C)(C)NC(=O)C(C)(C)NC(=O)C(C)(C)NC(=O)C(C)(C)N)C(=O)N[C@@H](C)C(N)=O [Compound 43] (H-[Aib][Aib][Aib][Aib]WWAYWPPVA-NH2) | 9 ± 3 | 40 ± 2 (≈ 60.6 µg/mL) |  | 64% | 57 ± 7 | EC50 ([1]; read-out: Potency (EC50), Table 1, Jurkat lymphocytes, probe Compound 2 (2.5 μM), 14 hours, 95% confidence interval in neighbouring cell): 10 µM |
| CC(C)CCC[C@@H](C)[C@H]1CC[C@H]2[C@@H]3CC=C4C[C@@H](OC(=O)NCCC(=O)NCCC(=O)N[C@@H](CCC(=O)O)C(=O)N[C@@H](CCC(=O)O)C(=O)NCCOCCOCCOCCC(=O)NCCOCCOCCOCCC(=O)NC(C)(C)C(=O)NC(C)(C)C(=O)NC(C)(C)C(=O)NC(C)(C)C(=O)N[C@@H](Cc5c[nH]c6ccccc56)C(=O)N[C@@H](Cc5ccc(O)cc5)C(=O)N[C@@H](C)C(=O)N[C@@H](Cc5c[nH]c6ccccc56)C(=O)N[C@@H](Cc5ccc(O)cc5)C(=O)N[C@@H](C)C(=O)N[C@@H](Cc5c[nH]c6ccccc56)C(=O)N[C@@H](Cc5ccc(O)cc5)C(=O)N5CCC[C@H]5C(=O)N5CCC[C@H]5C(=O)N[C@H](C(=O)N[C@H](C(N)=O)C(C)C)C(C)C)CC[C@]4(C)[C@H]3CC[C@]12C [Compound 84, Ch2-EEOOUUUUWYAWYAWYPPVV-NH2] ({Cholesteryloxycarbonyl-βAla-βAla}-EE[PEG3][PEG3][Aib][Aib][Aib][Aib]WYAWYAWYPPVV-NH2) |  | 21 ± 1 (≈ 66.4 µg/mL) |  |  |  |  |
